The text below walks through data of patent publication US11291671B2, “Solid drug implants for intracochlear delivery of therapeutics for the treatment of Otic disorders” (O-Ray Pharma, Inc., priority 2012, dated 2022).

The subject of series [1] is guinea pig cochleae. Kind of series: Intracochlear fluticasone proprionate for otoprotection of cisplatin dependent hearing loss, click ABR threshold. The series is classed as in vivo. Particulars: control ear (no implant), day 28, after cisplatin; baseline day 14 23.9±2.3 dB; P≤0.0001. The source says: Surgery: Albino guinea pigs were used for the single dose intracochlear implantation experiment. The guinea pigs received a single implant in one of their ears, and the other ear was used as internal control. Under general anesthesia, a postauricular incision was made over the bulla in the experimental ear. A small hole was drilled through the bulla using a posterior approach. The ear was positioned with the round window facing horizontally and superiorly. A 32-gauge needle was used to puncture the round window and the particle was put in contact with the perilymph in the scala tympani. A blood drop was placed over the round window injection site to avoid leakage of perilymphatic fluids and a suture was used to close the wound. Auditory Measurements; see FIGS. 5A and 5B: Animals were anesthetized for auditory testing. […] Lower ABR LS Means reading indicates better hearing. Error bars indicate Standard Error. Study Design: Particles were created and implanted into guinea pig cochleae as described in Examples 1-2. The study design is as follows: • Each animal: one ear implanted with extended release fluticasone particle (“implant ear”), other ear served as internal control (“control ear”). • Hearing was assessed via click (broad frequency) ABRs and DPOAE

Series [2] concerns guinea pig cochleae. The series is described as follows: Intracochlear fluticasone proprionate for otoprotection of cisplatin dependent hearing loss, DPOAE. It counts as in vivo. Particulars: 14 days after cisplatin application, no implant. The source says: Surgery: Albino guinea pigs were used for the single dose intracochlear implantation experiment. The guinea pigs received a single implant in one of their ears, and the other ear was used as internal control. Under general anesthesia, a postauricular incision was made over the bulla in the experimental ear. A small hole was drilled through the bulla using a posterior approach. The ear was positioned with the round window facing horizontally and superiorly. A 32-gauge needle was used to puncture the round window and the particle was put in contact with the perilymph in the scala tympani. A blood drop was placed over the round window injection site to avoid leakage of perilymphatic fluids and a suture was used to close the wound. DPOAE (2f1-f2) Input/output functions were recorded. Response amplitude was recorded as a function of L2 (L1-L2=10 dB); primaries incremented together in 5 dB steps (from 20 to 80 dB SPL) spanning the frequency range f2=5.6-45.2 kHz (f2/f1=1.2). […] Higher DPOAE reading indicates better hearing. Error bars indicate Standard Error. […] The study design is as follows: • Each animal: one ear implanted with extended release fluticasone particle (“implant ear”), other ear served as internal control (“control ear”). • Hearing was assessed via click (broad frequency) ABRs and DPOAE

The next series concerns patients. To be noted: cited from earlier work.

In the case of `N.N.[Cl][Pt][Cl]` [cisplatin, cis-diammine-dichloroplatinum(II)], the “ABR threshold, control ears following cisplatin treatment at day 28” value in the series on guinea pig cochleae [1] came to 40.7±2.5 dB. In the series with guinea pig cochleae [2], the “DPOAE responses, control ears” value is recorded as “absent”.
Turning to `[H]/N=C(/N)N[C@H]1[C@H](O)[C@@H](O)[C@H](O[C@@H]2O[C@@H](C)[C@](O)(C=O)[C@H]2O[C@@H]2O[C@@H](CO)[C@H](O)[C@@H](O)[C@@H]2NC)[C@@H](N/C(N)=N\[H])[C@@H]1O` [streptomycin], in the series with patients (one gram daily for 60 to 120 days), the “Patients displaying some vestibular impairment” value is on record as 25%. For the same compound, the “Incidence of vestibular impairment” value in the series on patients (two grams per day) is given as 75%.
